Measured values taken from the NIST ThermoML archive (doi:10.1016/j.tca.2008.06.004).

Legend:
[1] = 101.33 kPa, Liquid; for mass density: Pycnometric method; for speed of sound: Linear variable-path acoustic interferometer
[2] = xn = mol fraction of the nth substance listed; conditions: 101 kPa, Liquid; for excess molar volume: 298.15 K, Direct dilatometry; for speed of sound: 308.15 K, Linear variable-path acoustic interferometer
[3] = excess molar enthalpy (molar enthalpy of mixing); xn = mol fraction of the nth substance listed; conditions: 308.15 K, 101 kPa, Liquid, Calvet calorimetry

Cc1ccccc1N [2-methylaniline]
[1]
Conditions | mass density [kg/m3] | speed of sound [m/s]
298.15 K | 994.28 | –
308.15 K | – | 1603

Cc1ccccc1N [2-methylaniline] + C1CCCCC1
Conditions | excess molar enthalpy [kcal/mol] | excess molar volume [m3/mol] | speed of sound [m/s]
[2], x1 = 0.0663 | – | – | 1215
[2], x1 = 0.0768 | – | 2.41e-07 | –
[2], x1 = 0.1293 | – | – | 1221
[2], x1 = 0.1415 | – | 3.87e-07 | –
[2], x1 = 0.1758 | – | – | 1228
[2], x1 = 0.1925 | – | 4.7e-07 | –
[2], x1 = 0.2355 | – | – | 1239
[2], x1 = 0.2442 | – | 5.29e-07 | –
[2], x1 = 0.2901 | – | 5.62e-07 | –
[2], x1 = 0.2902 | – | – | 1252
[2], x1 = 0.3335 | – | – | 1264
[2], x1 = 0.3415 | – | 5.81e-07 | –
[2], x1 = 0.393 | – | – | 1282
[2], x1 = 0.3981 | – | 5.82e-07 | –
[2], x1 = 0.4506 | – | 5.68e-07 | –
[2], x1 = 0.4881 | – | – | 1315
[2], x1 = 0.5225 | – | 5.29e-07 | –
[2], x1 = 0.556 | – | – | 1342
[2], x1 = 0.6103 | – | 4.57e-07 | –
[2], x1 = 0.6453 | – | – | 1382
[2], x1 = 0.6875 | – | 3.79e-07 | –
[2], x1 = 0.7117 | – | – | 1415
[2], x1 = 0.7513 | – | 3.07e-07 | –
[2], x1 = 0.7986 | – | – | 1462
[2], x1 = 0.8224 | – | 2.22e-07 | –
[2], x1 = 0.8479 | – | – | 1493
[2], x1 = 0.9026 | – | – | 1528
[2], x1 = 0.9119 | – | 1.11e-07 | –
[3], x1 = 0.0527 | 0.0635 | – | –
[3], x1 = 0.1017 | 0.121 | – | –
[3], x1 = 0.1628 | 0.189 | – | –
[3], x1 = 0.2349 | 0.26 | – | –
[3], x1 = 0.2681 | 0.313 | – | –
[3], x1 = 0.3614 | 0.354 | – | –
[3], x1 = 0.4213 | 0.382 | – | –
[3], x1 = 0.4907 | 0.399 | – | –
[3], x1 = 0.5613 | 0.398 | – | –
[3], x1 = 0.6121 | 0.387 | – | –
[3], x1 = 0.6774 | 0.357 | – | –
[3], x1 = 0.7643 | 0.294 | – | –
[3], x1 = 0.8391 | 0.219 | – | –
[3], x1 = 0.931 | 0.102 | – | –

Cc1ccccc1N [2-methylaniline] + CCCCCC
Conditions | excess molar enthalpy [kcal/mol] | excess molar volume [m3/mol] | speed of sound [m/s]
[2], x1 = 0.0697 | – | – | 1056
[2], x1 = 0.0712 | – | -4.8e-08 | –
[2], x1 = 0.1172 | – | – | 1075
[2], x1 = 0.1767 | – | -1.25e-07 | –
[2], x1 = 0.1851 | – | – | 1105
[2], x1 = 0.2524 | – | -1.84e-07 | –
[2], x1 = 0.2657 | – | – | 1142
[2], x1 = 0.2933 | – | -2.15e-07 | –
[2], x1 = 0.3119 | – | – | 1165
[2], x1 = 0.3442 | – | -2.52e-07 | –
[2], x1 = 0.3707 | – | – | 1194
[2], x1 = 0.3801 | – | -2.77e-07 | –
[2], x1 = 0.4443 | – | -3.15e-07 | –
[2], x1 = 0.4478 | – | – | 1232
[2], x1 = 0.4903 | – | -3.38e-07 | –
[2], x1 = 0.5009 | – | – | 1259
[2], x1 = 0.5613 | – | -3.63e-07 | –
[2], x1 = 0.5787 | – | – | 1297
[2], x1 = 0.6363 | – | -3.71e-07 | –
[2], x1 = 0.6449 | – | – | 1329
[2], x1 = 0.6991 | – | -3.61e-07 | –
[2], x1 = 0.709 | – | – | 1359
[2], x1 = 0.7552 | – | -3.36e-07 | –
[2], x1 = 0.7673 | – | – | 1389
[2], x1 = 0.8345 | – | -2.71e-07 | –
[2], x1 = 0.8391 | – | – | 1433
[2], x1 = 0.9123 | – | – | 1501
[2], x1 = 0.9265 | – | -1.46e-07 | –
[3], x1 = 0.0678 | 0.0385 | – | –
[3], x1 = 0.1317 | 0.084 | – | –
[3], x1 = 0.1927 | 0.132 | – | –
[3], x1 = 0.2505 | 0.179 | – | –
[3], x1 = 0.3314 | 0.242 | – | –
[3], x1 = 0.4015 | 0.29 | – | –
[3], x1 = 0.4718 | 0.328 | – | –
[3], x1 = 0.5317 | 0.35 | – | –
[3], x1 = 0.5997 | 0.36 | – | –
[3], x1 = 0.6532 | 0.355 | – | –
[3], x1 = 0.7013 | 0.341 | – | –
[3], x1 = 0.7717 | 0.301 | – | –
[3], x1 = 0.8439 | 0.235 | – | –
[3], x1 = 0.9164 | 0.142 | – | –

Cc1ccccc1N [2-methylaniline] + CCCCCCC
Conditions | excess molar enthalpy [kcal/mol] | excess molar volume [m3/mol] | speed of sound [m/s]
[2], x1 = 0.0707 | – | – | 1102
[2], x1 = 0.0814 | – | -4.8e-08 | –
[2], x1 = 0.1227 | – | – | 1115
[2], x1 = 0.1663 | – | -1.02e-07 | –
[2], x1 = 0.1758 | – | – | 1129
[2], x1 = 0.2224 | – | -1.37e-07 | –
[2], x1 = 0.2378 | – | – | 1148
[2], x1 = 0.2812 | – | -1.71e-07 | –
[2], x1 = 0.3079 | – | – | 1172
[2], x1 = 0.3388 | – | -1.99e-07 | –
[2], x1 = 0.3508 | – | – | 1187
[2], x1 = 0.3991 | – | -2.23e-07 | –
[2], x1 = 0.4047 | – | – | 1208
[2], x1 = 0.4554 | – | -2.38e-07 | –
[2], x1 = 0.4679 | – | – | 1233
[2], x1 = 0.5218 | – | -2.47e-07 | –
[2], x1 = 0.547 | – | – | 1266
[2], x1 = 0.5804 | – | -2.45e-07 | –
[2], x1 = 0.6131 | – | – | 1296
[2], x1 = 0.6446 | – | -2.33e-07 | –
[2], x1 = 0.6884 | – | – | 1334
[2], x1 = 0.7112 | – | -2.1e-07 | –
[2], x1 = 0.7597 | – | – | 1373
[2], x1 = 0.7819 | – | -1.73e-07 | –
[2], x1 = 0.8208 | – | – | 1413
[2], x1 = 0.8503 | – | -1.27e-07 | –
[2], x1 = 0.9224 | – | – | 1501
[2], x1 = 0.9383 | – | -6.7e-08 | –
[3], x1 = 0.0734 | 0.0479 | – | –
[3], x1 = 0.1457 | 0.0872 | – | –
[3], x1 = 0.1968 | 0.112 | – | –
[3], x1 = 0.2678 | 0.144 | – | –
[3], x1 = 0.3109 | 0.162 | – | –
[3], x1 = 0.3874 | 0.193 | – | –
[3], x1 = 0.4467 | 0.215 | – | –
[3], x1 = 0.5019 | 0.234 | – | –
[3], x1 = 0.5876 | 0.256 | – | –
[3], x1 = 0.6513 | 0.264 | – | –
[3], x1 = 0.7016 | 0.263 | – | –
[3], x1 = 0.7767 | 0.244 | – | –
[3], x1 = 0.8312 | 0.215 | – | –
[3], x1 = 0.9267 | 0.12 | – | –

C1CCCCC1 [cyclohexane]
[1], 298.15 K
Conditions | mass density [kg/m3] | speed of sound [m/s]
– | 773.94 | 1255

CCCCCCC [heptane]
[1]
Conditions | mass density [kg/m3] | speed of sound [m/s]
298.15 K | 679.49 | –
308.15 K | – | 1088

CCCCCC [hexane]
[1], 298.15 K
Conditions | mass density [kg/m3] | speed of sound [m/s]
– | 654.82 | 1079
